# Measurements: patent publication US8927717B1, “Thiochromeno[2,3-c]quinolin-12-one derivatives, preparation method and application thereof” (National Defense Medical Center, priority 2014, dated 2015)
# Assays:
# OVCAR-3 = type: cell-based
# OVCAR-4 = type: cell-based
# M14 = type: cell-based
# SNB-75 = type: cell-based
# HS 578T = type: cell-based
# SF-539 = type: cell-based
# HOP-92 = type: cell-based; conditions: Non-small cell lung cancer; 10^−5 molar; 48 hours; SRB
# IGROV1 = type: cell-based
# UACC-257 = type: cell-based
# TOP I (Topoisomerase I) [1] = biological target: T1, TOP I (Topoisomerase I) (Homo sapiens, UniProt P11387); test: TOP I mediated supercoiled DNA relaxation assay; type: biochemical; conditions: primary assay at 25 and/or 50 μM
# T1 construct: purchased TopoGEN TG2005H
# T1 sequence (P11387 1-765): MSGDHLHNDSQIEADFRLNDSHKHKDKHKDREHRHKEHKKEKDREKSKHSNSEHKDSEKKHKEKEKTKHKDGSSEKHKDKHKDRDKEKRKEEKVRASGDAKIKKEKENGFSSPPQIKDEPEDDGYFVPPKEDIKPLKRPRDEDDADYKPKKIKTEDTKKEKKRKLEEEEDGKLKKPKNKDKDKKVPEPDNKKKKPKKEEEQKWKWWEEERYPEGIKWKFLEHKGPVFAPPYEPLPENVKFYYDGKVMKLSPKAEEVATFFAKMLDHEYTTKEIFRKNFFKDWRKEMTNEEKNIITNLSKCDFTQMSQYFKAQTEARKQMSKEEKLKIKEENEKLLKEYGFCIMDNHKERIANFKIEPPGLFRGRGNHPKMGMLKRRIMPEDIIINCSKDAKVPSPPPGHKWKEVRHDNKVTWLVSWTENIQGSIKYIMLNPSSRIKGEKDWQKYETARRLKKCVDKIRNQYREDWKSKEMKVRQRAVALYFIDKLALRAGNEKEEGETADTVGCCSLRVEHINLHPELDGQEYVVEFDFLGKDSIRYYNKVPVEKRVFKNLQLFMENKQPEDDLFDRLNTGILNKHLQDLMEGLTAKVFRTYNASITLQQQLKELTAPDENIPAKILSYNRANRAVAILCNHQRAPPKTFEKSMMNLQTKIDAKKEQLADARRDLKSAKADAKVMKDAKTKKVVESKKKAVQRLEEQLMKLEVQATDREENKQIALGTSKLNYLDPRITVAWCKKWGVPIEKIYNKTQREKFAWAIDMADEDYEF
# Method: According to the cell cytotoxicity, compounds 5, 7, 8, 16, 19, N2, N7, N8, N9, N14-N19, and N25 were also selected for primary TOP I and II activities assays at 25 and/or 50 μM (FIG. 2-4).
# COLO 205 = type: cell-based
# HL-60(TB) = type: cell-based
# HOP-62 = type: cell-based
# [2] = biological target: T2, TOP II (Topoisomerase II) (Homo sapiens, UniProt P11388); test: TOP II-catalyzed relaxation of plasmid DNA assay; type: biochemical
# T2 construct: purchased TopoGEN TG-2000H-1
# T2 sequence (P11388 whole entry): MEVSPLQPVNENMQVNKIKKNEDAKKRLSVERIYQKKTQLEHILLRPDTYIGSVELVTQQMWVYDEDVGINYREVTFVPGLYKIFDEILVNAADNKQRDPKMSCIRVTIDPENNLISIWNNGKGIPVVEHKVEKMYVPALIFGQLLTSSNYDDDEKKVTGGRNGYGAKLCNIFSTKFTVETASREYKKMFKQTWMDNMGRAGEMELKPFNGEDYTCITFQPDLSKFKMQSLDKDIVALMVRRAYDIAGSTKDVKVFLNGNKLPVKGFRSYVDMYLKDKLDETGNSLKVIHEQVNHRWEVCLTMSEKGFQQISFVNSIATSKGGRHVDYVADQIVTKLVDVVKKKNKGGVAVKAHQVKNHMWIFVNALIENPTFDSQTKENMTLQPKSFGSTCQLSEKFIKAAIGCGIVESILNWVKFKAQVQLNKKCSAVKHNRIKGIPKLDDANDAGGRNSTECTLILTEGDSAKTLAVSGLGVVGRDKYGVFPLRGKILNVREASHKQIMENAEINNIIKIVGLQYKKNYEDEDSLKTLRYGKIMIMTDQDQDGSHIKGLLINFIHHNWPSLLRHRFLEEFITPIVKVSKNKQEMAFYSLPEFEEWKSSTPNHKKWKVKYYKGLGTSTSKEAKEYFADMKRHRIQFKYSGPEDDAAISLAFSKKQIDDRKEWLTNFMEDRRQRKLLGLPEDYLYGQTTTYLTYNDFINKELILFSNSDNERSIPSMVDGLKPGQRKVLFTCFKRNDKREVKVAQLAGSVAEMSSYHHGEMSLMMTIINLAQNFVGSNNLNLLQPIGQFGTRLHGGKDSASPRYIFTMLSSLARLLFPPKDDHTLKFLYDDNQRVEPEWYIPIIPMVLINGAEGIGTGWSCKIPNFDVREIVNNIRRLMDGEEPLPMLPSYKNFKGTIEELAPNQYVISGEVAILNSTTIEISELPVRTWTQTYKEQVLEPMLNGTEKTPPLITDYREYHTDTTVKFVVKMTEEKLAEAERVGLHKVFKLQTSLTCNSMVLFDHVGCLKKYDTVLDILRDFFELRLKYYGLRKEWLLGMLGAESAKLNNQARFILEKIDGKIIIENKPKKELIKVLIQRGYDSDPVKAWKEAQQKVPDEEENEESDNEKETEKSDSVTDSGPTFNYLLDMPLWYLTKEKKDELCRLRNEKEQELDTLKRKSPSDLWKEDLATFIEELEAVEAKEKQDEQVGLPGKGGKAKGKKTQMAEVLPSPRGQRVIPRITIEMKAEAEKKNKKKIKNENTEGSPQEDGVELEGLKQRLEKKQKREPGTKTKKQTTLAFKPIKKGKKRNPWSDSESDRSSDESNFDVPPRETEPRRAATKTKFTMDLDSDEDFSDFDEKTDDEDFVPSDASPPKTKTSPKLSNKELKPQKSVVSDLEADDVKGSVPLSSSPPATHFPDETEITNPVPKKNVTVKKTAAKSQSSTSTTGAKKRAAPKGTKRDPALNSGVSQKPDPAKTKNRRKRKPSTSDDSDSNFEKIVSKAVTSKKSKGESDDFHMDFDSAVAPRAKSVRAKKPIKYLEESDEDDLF
# Method: We also performed TOP II-catalyzed relaxation of plasmid DNA assays (FIG. 5-7) to evaluate if compounds could inhibit TOP II. […] The IC50 value of compounds 7, N7, N8, N14, N15, N18, and N19 were about 10, 10, 1, 10, 5, 1, and 1 μM, respectively (detect by TopoGEN TG2005H, TG-2000H-1).
# SK-MEL-2 = type: cell-based
# HT29 = type: cell-based
# NCI-H460 = type: cell-based
# HCC-2998 = type: cell-based
# CAKI-1 = type: cell-based
# SNB-19 = type: cell-based
# TOP I (Topoisomerase I) [3] = biological target: T1, TOP I (Topoisomerase I); test: TOP I mediated supercoiled DNA relaxation assay; type: biochemical; conditions: five different concentrations; TopoGEN TG2005H, TG-2000H-1
# ACHN = type: cell-based
# SW-620 = type: cell-based
# [4] = Ovarian cancer, 10^−5 molar, 48 hours, SRB
# [5] = Melanoma, 10^−5 molar, 48 hours, SRB
# [6] = CNS cancer, 10^−5 molar, 48 hours, SRB
# [7] = Homo sapiens, SNB-75, five dose
# [8] = Homo sapiens, SF-539, five dose
# [9] = Colon cancer, 10^−5 molar, 48 hours, SRB
# [10] = Homo sapiens, COLO 205, five dose
# [11] = Homo sapiens, HOP-62, five dose
# [12] = Non-small cell lung cancer, 10^−5 molar, 48 hours, SRB
# [13] = Homo sapiens, SK-Mel-2, five dose
# [14] = Homo sapiens, HT-29, HT29, five dose
# [15] = Homo sapiens, NCI-H460, five dose
# [16] = Homo sapiens, HCC-2998, five dose
# [17] = Renal cancer, 10^−5 molar, 48 hours, SRB
# [18] = Homo sapiens, SNB-19, five dose
# [19] = Homo sapiens, SW-620, five dose
structure (smiles),measurement,setting,value
"CN(C)CCNc1nc2ccccc2c2c(=O)c3cc(Cl)ccc3sc12 [Compound N7, 10-Chloro-6-((2-(dimethylamino)ethyl)amino)-12H-thiochromeno[2,3-c]quinolin-12-one]",GI50,"OVCAR-3; Homo sapiens, OVCAR-3, five dose",1.61 µM
same,CC50,"OVCAR-3; Homo sapiens, OVCAR-3, five dose, read-out: LC50 (the source's name)",5.58 µM
same,TGI,"OVCAR-3; OVCAR-3, five dose",3.00 µM
same,Growth percent OVCAR-3,OVCAR-3; [4],19.74%
same,GI50,"OVCAR-4; Homo sapiens, OVCAR-4, five dose",1.19 µM
same,CC50,"OVCAR-4; Homo sapiens, OVCAR-4, five dose, read-out: LC50 (the source's name)",6.35 µM
same,TGI,"OVCAR-4; OVCAR-4, five dose",2.75 µM
same,Growth percent OVCAR-4,OVCAR-4; [4],60.67%
same,GI50,"M14; Homo sapiens, M14, five dose",1.85 µM
same,LC50,"M14; Homo sapiens, M14, five dose",6.4 µM
same,TGI,"M14; M14, five dose",3.44 µM
same,Growth percent M14,M14; [5],−92.77%
same,Growth percent SNB-75,SNB-75; [6],33.36%
same,GI50,SNB-75; [7],1.28 µM
same,LC50,SNB-75; [7],12.1 µM
same,TGI,"SNB-75; SNB-75, five dose",3.69 µM
same,Growth percent HS 578T,"HS 578T; Breast cancer, 10^−5 molar, 48 hours, SRB",34.31%
same,TGI,"HS 578T; HS 578T, five dose",4.02 µM
same,GI50,"HS 578T; Homo sapiens, HS 578T, five dose",1.74 µM
same,CC50,"HS 578T; Homo sapiens, HS 578T, five dose, read-out: LC50 (the source's name)",9.27 µM
same,Growth percent SF-539,SF-539; [6],48.73%
same,GI50,SF-539; [8],1.68 µM
same,LC50,SF-539; [8],5.67 µM
same,TGI,"SF-539; SF-539, five dose",3.08 µM
same,Growth percent HOP-92,HOP-92,−10.12%
same,GI50,"IGROV1; Homo sapiens, IGROV-1, IGROV1, five dose",1.7 µM
same,CC50,"IGROV1; Homo sapiens, IGROV-1, IGROV1, five dose, read-out: LC50 (the source's name)",6.58 µM
same,TGI,"IGROV1; IGROV1, five dose",3.34 µM
same,Growth percent IGROV1,IGROV1; [4],33.20%
same,GI50,"UACC-257; Homo sapiens, UACC-257, five dose",1.74 µM
same,CC50,"UACC-257; Homo sapiens, UACC-257, five dose, read-out: LC50 (the source's name)",5.93 µM
same,Growth percent UACC-257,UACC-257; [5],−48.22%
same,TGI,"UACC-257; UACC-257, five dose",3.21 µM
same,inhibitory effect in TOP I activity assay compared with CPT,TOP I (Topoisomerase I) [1],more potent inhibitory effects than CPT
same,TGI,"COLO 205; COLO 205, five dose",3.17 µM
same,Growth percent COLO 205,COLO 205; [9],−82.85%
same,GI50,COLO 205; [10],1.66 µM
same,LC50,COLO 205; [10],6.05 µM
same,TGI,"HL-60(TB); HL-60(TB), five dose",3.49 µM
same,GI50,"HL-60(TB); Homo sapiens, HL-60(TB), five dose",1.76 µM
same,CC50,"HL-60(TB); Homo sapiens, HL-60(TB), five dose, read-out: LC50 (the source's name)",6.95 µM
same,Growth percent HL-60(TB),"HL-60(TB); Leukemia, 10^−5 molar, 48 hours, SRB",−47.40%
same,TGI,"HOP-62; HOP-62, five dose",2.92 µM
same,GI50,HOP-62; [11],1.54 µM
same,LC50 (lethal concentration 50),HOP-62; [11],5.56 µM
same,Growth percent HOP-62,HOP-62; [12],56.42%
same,IC50,"[2]; five different concentrations, TopoGEN TG2005H, TG-2000H-1, read-out: IC50 value, TOP II mediated supercoiled DNA relaxation",~10 µM
same,inhibitory effect in TOP II relaxation assay compared with VP-16,[2]; primary assay at 25 and/or 50 μM,more potent inhibitory effects than the positive agent VP-16
same,GI50,SK-MEL-2; [13],1.8 µM
same,LC50,SK-MEL-2; [13],6.12 µM
same,Growth percent SK-MEL-2,SK-MEL-2; [5],−7.83%
same,TGI,"SK-MEL-2; SK-Mel-2, five dose",3.32 µM
same,Growth percent HT29,HT29; [9],−84.24%
same,TGI,"HT29; HT29, five dose",3.36 µM
same,GI50,HT29; [14],1.65 µM
same,LC50 (concentration killing 50% of cells),HT29; [14],6.88 µM
same,GI50,NCI-H460; [15],1.76 µM
same,LC50,NCI-H460; [15],6.5 µM
same,TGI,"NCI-H460; NCI-H460, five dose",3.38 µM
same,Growth percent NCI-H460,NCI-H460; [12],−71.14%
same,Growth percent HCC-2998,HCC-2998; [9],−83.65%
same,TGI,"HCC-2998; HCC-2998, five dose",3.38 µM
same,GI50,HCC-2998; [16],1.68 µM
same,LC50,HCC-2998; [16],6.82 µM
same,TGI,"CAKI-1; CAKI-1, five dose",2.80 µM
same,GI50,"CAKI-1; Homo sapiens, CAKI-1, five dose",1.43 µM
same,CC50,"CAKI-1; Homo sapiens, CAKI-1, five dose, read-out: LC50 (the source's name)",5.49 µM
same,Growth percent CAKI-1,CAKI-1; [17],34.60%
same,Growth percent SNB-19,SNB-19; [6],55.44%
same,GI50,SNB-19; [18],1.54 µM
same,LC50 (concentration killing 50% of cells),SNB-19; [18],6.1 µM
same,TGI,"SNB-19; SNB-19, five dose",3.07 µM
same,IC50,TOP I (Topoisomerase I) [3],~10 µM
same,TGI,"ACHN; ACHN, five dose",3.07 µM
same,GI50,"ACHN; Homo sapiens, ACHN, five dose",1.63 µM
same,CC50,"ACHN; Homo sapiens, ACHN, five dose, read-out: LC50 (the source's name)",5.77 µM
same,Growth percent ACHN,ACHN; [17],7.55%
same,Growth percent SW-620,SW-620; [9],−67.82%
same,GI50,SW-620; [19],1.71 µM
same,LC50,SW-620; [19],6.36 µM
same,TGI,"SW-620; SW-620, five dose",3.29 µM
